Each block holds one compound with its values, some of them ahead of it.
Tests used:
[1] = biological target: T1, Megakaryocyte-associated tyrosine-protein kinase (Homo sapiens) (UniProt P42679); assay: Selectivity interaction (SelectScreen profiling (Invitrogen)) EUB0000607a MATK; conditions: at 2 µM
T1 sequence (whole entry): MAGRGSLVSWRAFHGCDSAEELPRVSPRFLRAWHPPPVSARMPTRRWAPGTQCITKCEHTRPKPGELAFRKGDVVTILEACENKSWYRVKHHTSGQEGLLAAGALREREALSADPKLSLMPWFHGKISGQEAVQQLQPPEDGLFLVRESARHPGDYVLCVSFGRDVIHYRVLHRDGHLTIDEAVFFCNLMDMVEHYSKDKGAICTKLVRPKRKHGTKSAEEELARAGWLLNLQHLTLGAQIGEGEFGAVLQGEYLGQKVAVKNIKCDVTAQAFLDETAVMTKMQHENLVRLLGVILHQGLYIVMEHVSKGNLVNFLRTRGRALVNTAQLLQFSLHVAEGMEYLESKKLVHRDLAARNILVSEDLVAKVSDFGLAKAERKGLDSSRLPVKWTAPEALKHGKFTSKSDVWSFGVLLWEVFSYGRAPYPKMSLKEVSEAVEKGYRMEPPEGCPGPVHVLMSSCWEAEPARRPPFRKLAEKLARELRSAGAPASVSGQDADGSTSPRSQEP

[2] = biological target: Ribosomal protein S6 kinase alpha-1 (Homo sapiens, UniProt Q15418); conditions: at 10 µM
Chain of Ribosomal protein S6 kinase alpha-1 (Q15418 whole entry): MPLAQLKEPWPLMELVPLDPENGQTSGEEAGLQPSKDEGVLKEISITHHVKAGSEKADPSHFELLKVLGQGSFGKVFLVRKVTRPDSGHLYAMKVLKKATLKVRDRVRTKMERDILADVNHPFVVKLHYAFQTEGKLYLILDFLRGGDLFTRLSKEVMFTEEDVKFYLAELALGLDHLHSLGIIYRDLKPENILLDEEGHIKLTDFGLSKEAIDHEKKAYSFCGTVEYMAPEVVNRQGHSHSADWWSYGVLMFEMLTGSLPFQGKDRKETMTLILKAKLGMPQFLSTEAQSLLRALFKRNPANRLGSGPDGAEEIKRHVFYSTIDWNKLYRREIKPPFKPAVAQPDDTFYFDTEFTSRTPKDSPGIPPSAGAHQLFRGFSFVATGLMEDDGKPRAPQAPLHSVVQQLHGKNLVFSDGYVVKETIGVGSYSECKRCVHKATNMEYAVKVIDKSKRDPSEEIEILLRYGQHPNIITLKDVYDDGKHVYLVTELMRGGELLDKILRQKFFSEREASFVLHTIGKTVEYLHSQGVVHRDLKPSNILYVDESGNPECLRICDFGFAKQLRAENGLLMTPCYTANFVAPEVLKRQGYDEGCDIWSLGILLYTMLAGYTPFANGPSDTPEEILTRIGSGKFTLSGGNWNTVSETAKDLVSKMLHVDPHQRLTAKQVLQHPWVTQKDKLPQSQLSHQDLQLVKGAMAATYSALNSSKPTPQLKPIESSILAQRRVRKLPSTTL

[3] = biological target: T2, Dual specificity mitogen-activated protein kinase kinase 4 (Homo sapiens) (UniProt P45985); assay: Selectivity interaction (KinomeScan (DiscoverX)) EUB0001049a MAP2K4; conditions: at 1 µM
T2 sequence (whole entry): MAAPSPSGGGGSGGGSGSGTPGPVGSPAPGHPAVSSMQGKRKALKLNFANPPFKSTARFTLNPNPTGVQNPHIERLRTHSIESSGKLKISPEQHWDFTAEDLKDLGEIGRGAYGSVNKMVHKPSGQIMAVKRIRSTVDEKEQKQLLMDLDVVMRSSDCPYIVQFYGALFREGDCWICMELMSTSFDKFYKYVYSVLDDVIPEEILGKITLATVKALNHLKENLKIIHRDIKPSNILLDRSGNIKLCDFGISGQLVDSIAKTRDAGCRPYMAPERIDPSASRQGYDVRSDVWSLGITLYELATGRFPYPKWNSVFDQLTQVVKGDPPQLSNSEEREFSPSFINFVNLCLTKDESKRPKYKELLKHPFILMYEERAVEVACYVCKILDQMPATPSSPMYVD

[4] = biological target: Ribosomal protein S6 kinase alpha-2 (Homo sapiens) (UniProt Q15349); assay: Selectivity interaction (KinomeScan (DiscoverX)) EUB0001049a RPS6KA2; conditions: at 1 µM
Chain of Ribosomal protein S6 kinase alpha-2 (Homo sapiens) (Q15349 whole entry): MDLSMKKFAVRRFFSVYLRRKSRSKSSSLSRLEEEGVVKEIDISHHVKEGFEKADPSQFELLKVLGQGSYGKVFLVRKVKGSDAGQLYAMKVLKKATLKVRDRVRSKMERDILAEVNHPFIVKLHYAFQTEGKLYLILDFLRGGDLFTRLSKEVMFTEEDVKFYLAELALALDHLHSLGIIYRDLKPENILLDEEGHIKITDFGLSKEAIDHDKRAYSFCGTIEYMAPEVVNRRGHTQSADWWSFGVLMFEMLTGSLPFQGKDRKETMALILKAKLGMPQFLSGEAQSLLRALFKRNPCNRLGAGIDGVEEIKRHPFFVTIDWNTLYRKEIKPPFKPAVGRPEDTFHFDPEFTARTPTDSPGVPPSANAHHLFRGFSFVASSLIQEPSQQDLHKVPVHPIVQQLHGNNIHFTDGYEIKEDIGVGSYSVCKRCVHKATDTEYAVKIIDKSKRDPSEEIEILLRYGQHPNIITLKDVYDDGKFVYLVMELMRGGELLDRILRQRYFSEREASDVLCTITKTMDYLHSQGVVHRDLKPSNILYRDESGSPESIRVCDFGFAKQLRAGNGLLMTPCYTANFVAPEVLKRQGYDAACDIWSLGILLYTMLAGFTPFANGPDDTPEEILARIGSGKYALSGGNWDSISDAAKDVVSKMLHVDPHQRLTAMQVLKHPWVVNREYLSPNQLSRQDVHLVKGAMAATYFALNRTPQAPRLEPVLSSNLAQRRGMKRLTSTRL

[5] = biological target: T3, Ephrin type-B receptor 4 (Homo sapiens) (UniProt P54760); assay: Selectivity interaction (KinomeScan (DiscoverX)) EUB0000655a EPHB4; conditions: at 10 µM
T3 sequence (whole entry): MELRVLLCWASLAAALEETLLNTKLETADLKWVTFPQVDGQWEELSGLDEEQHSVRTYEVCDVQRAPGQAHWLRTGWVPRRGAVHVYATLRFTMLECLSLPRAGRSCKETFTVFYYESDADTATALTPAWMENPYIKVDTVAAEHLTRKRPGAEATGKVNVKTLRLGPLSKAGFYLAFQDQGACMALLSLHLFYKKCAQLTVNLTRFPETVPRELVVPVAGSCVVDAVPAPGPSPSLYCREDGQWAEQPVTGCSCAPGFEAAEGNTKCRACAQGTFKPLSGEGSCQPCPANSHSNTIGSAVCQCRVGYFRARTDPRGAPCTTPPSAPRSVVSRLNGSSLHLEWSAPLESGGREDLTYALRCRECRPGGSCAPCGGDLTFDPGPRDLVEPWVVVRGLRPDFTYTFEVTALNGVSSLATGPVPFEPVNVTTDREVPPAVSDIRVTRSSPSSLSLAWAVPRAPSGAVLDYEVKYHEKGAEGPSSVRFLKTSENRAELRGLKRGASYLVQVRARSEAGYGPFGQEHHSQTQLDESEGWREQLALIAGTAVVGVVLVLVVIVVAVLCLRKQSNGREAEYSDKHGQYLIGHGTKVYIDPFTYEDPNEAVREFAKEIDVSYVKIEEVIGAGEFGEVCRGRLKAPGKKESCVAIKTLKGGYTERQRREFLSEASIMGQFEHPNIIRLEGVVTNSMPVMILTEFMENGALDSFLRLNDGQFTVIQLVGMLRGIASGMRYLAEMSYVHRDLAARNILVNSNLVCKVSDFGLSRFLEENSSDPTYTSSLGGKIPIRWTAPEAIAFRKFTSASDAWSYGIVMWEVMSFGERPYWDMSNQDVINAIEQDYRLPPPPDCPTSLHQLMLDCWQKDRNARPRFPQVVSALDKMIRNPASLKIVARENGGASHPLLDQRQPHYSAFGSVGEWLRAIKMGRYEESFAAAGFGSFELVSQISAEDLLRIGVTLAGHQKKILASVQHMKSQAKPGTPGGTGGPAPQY

[6] = biological target: Tyrosine-protein kinase JAK1 (Homo sapiens, UniProt P23458); assay: Selectivity interaction (KinomeScan (DiscoverX)) EUB0000045b JAK1; conditions: at 1 µM
Chain of Tyrosine-protein kinase JAK1 (P23458 whole entry): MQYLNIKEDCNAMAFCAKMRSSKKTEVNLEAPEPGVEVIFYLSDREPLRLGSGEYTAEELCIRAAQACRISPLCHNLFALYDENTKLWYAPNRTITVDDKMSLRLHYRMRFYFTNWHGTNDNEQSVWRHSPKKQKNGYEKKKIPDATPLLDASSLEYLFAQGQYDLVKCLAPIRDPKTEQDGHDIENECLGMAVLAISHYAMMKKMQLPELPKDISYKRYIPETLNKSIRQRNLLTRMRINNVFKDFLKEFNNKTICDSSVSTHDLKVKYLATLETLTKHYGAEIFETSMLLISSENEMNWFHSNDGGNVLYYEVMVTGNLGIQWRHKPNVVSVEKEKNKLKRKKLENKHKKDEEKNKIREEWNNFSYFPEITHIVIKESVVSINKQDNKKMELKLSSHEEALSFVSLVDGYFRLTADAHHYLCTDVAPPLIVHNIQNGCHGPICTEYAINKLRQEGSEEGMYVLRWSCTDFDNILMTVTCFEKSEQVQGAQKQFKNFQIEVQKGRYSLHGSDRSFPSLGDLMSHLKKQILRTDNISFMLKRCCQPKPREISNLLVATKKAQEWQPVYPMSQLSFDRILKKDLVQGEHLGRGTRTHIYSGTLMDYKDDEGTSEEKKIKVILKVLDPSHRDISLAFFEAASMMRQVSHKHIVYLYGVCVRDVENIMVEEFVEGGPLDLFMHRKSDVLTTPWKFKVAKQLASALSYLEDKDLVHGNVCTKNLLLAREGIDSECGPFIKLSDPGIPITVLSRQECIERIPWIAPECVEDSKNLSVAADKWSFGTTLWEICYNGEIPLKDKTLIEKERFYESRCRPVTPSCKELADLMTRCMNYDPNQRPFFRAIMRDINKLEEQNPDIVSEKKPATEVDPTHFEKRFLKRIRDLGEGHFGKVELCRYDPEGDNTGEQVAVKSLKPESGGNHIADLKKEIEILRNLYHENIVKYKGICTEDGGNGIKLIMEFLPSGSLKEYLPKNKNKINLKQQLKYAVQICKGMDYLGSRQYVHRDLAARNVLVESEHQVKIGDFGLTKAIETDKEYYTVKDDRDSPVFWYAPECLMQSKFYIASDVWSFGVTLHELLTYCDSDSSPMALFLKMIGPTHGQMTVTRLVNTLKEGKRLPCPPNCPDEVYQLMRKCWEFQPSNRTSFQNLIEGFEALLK

[7] = biological target: T4, Protein arginine N-methyltransferase 9 (Homo sapiens) (UniProt Q6P2P2); conditions: at 1 µM
T4 sequence (whole entry): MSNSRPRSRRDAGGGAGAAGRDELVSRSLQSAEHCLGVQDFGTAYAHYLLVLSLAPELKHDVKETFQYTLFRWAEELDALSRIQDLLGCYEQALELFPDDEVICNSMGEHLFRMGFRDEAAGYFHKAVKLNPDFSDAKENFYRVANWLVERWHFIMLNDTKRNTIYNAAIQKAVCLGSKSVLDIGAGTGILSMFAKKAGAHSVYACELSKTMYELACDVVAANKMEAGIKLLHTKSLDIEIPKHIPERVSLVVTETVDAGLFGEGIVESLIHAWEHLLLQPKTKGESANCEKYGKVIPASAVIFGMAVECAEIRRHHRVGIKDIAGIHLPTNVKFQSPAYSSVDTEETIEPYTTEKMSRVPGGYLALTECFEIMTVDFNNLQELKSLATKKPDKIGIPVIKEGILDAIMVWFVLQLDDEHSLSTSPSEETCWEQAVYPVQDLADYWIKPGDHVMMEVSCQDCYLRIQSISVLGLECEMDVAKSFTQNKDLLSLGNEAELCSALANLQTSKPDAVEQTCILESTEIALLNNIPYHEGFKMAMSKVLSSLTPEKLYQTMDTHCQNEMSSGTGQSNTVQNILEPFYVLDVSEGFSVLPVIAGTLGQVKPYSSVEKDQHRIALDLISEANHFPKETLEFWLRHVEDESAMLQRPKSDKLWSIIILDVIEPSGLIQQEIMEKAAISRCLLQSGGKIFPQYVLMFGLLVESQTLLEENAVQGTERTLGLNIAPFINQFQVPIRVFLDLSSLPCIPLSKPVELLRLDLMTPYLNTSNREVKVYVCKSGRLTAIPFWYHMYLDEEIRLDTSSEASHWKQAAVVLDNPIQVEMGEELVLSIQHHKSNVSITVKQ

SMILES: CNC(=O)Nc1ccc(-c2nc(N3CC4CCC(C3)O4)c3cnn(C4CCC5(CC4)OCCO5)c3n2)cc1
% of inhibition [1]: 2%

% of control [2]: 100%
SMILES: CCN(CC)CCCCNc1ncc2cc(-c3cc(OC)cc(OC)c3)c(NC(=O)NC(C)(C)C)nc2n1

SMILES: COc1cc(Nc2nc(C)cc(-c3cnn4nc(OC)ccc34)n2)cc(C(F)(F)F)c1
% of control [3]: 74%
% of control [4]: 93%

SMILES: CN(C)CCOc1ccc(-c2nc(-c3ccncc3)c(-c3ccc4c(c3)CC/C4=N\O)[nH]2)cc1
% of control [5]: 100%

SMILES: C=CC(=O)Nc1cc(-n2c(=O)ccc3cnc4ccc(-c5ccc(NS(C)(=O)=O)cc5)cc4c32)ccc1C
% of control [6]: 99%

% activity [7]: > 90%
SMILES: CNCCN1CCC(c2cc(CN(C)C(=O)c3cccc(Oc4ccccc4)c3)ccn2)CC1

Source: ChEMBL document CHEMBL5465560, “Selectivity Literature for EUbOPEN Chemogenomic Library” (2024)
